Activity calls are given as the source filed them. The calls are words filed in the database; no cut-off is given here.
Columns and labels:
[1] = target: Voltage-gated inwardly rectifying potassium channel KCNH2 (Homo sapiens, UniProt Q12809); test: Inhibition of hERG by fluorescence polarization assay; format: toxicity
hERG (KCNH2) = hERG (KCNH2) (Homo sapiens, UniProt Q12809); test: Inhibition of hERG at 10 uM by fluorescence polarization assay relative to control; format: toxicity
Mus musculus [2] = species: Mus musculus; conditions: ICR, dose 10.0 mM, route icv
[3] = Cytotoxicity against mouse HT-22 cells assessed as cell viability at 10 uM incubated for 18 hrs by MTT assay relative to control; format: toxicity, cell-based; conditions: read-out: Activity
Mus musculus [4] = test: Antialzheimer activity in human amyloid beta (3 to 40 residues) induced ICR mouse model assessed as inhibition of pyroglutamate form of amyloid-beta formation in brain at 10 mM, icv by sandwich ELISA relative to control; format: functional
[5] = Metabolic stability in human liver microsomes assessed as compound remaining after 30 mins; format: ADME, Microsome; conditions: read-out: Stability
[6] = Metabolic stability in mouse liver microsomes assessed as compound remaining after 30 mins; format: ADME, Microsome; conditions: read-out: Stability
[7] = target: Glutaminyl-peptide cyclotransferase (Mus musculus, UniProt Q9CYK2); test: Inhibition of mouse glutaminyl cyclase
Glutaminyl-peptide cyclotransferase, sequence (Q9CYK2 whole entry): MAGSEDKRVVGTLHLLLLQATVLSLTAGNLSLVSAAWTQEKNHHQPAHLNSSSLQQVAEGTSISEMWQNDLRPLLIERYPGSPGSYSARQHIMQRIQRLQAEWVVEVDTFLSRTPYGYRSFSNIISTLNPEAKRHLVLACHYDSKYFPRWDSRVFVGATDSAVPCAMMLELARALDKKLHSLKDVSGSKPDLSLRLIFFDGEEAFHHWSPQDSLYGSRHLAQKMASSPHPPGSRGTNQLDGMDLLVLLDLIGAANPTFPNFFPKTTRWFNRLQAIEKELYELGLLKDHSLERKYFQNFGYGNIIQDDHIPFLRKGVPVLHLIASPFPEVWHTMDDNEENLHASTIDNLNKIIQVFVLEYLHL

hERG (KCNH2), sequence (Q12809 whole entry): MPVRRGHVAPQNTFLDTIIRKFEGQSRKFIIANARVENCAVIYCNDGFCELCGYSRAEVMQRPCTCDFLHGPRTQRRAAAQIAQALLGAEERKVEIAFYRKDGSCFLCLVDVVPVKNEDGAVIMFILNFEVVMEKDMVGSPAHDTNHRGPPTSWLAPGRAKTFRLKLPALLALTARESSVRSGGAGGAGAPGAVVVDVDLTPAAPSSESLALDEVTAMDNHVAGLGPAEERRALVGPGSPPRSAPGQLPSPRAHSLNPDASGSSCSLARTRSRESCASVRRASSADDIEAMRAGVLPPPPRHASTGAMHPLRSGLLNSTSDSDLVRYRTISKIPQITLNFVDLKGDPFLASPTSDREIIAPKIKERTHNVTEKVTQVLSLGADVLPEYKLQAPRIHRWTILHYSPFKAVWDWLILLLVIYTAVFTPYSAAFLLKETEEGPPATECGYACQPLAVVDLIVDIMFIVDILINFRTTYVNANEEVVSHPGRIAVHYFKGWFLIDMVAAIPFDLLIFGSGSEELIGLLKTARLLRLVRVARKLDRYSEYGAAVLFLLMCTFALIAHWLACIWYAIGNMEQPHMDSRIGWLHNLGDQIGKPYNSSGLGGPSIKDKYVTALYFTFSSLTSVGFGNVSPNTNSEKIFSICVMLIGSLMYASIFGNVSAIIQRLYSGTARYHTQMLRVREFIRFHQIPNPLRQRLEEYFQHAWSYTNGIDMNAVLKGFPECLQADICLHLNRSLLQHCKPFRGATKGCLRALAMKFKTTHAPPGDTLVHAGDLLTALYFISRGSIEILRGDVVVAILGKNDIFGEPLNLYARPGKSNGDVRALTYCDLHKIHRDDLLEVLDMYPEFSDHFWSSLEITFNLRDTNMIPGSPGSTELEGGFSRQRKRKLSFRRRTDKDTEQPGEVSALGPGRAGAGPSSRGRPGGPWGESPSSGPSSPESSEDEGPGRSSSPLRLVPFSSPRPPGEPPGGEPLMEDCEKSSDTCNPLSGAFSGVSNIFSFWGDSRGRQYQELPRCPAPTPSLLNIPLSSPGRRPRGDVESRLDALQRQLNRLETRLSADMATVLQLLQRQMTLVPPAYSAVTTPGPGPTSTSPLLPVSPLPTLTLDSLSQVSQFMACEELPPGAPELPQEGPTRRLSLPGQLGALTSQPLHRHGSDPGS
Voltage-gated inwardly rectifying potassium channel KCNH2, sequence (Q12809 whole entry): as above

## Cc1nn(C)c2cc(N(CC3CCCC3)C(=O)NCCCn3cncc3C)ccc12
[1]
  IC50: > 10 µM
hERG (KCNH2)
  inhibition at 10 µM: 70.3%
Mus musculus [2]
  inhibition: inactive
[3]
  viability at 18 h, 10 µM: 107%

## Cc1nn(C)c2ccc(N(Cc3ccc(F)cc3)C(=O)NCCCn3cncc3C)cc12
[1]
  IC50: > 10 µM
hERG (KCNH2)
  inhibition at 10 µM: 63.6%
Mus musculus [4]
  inhibition (INH): 7%
[3]
  viability at 18 h, 10 µM: 108%

## Cc1cncn1CCCNC(=O)N(Cc1ccc(F)cc1)c1ccc2c(C)n(C)nc2c1
hERG (KCNH2)
  inhibition at 10 µM: 52%
Mus musculus [4]
  inhibition (INH): 15%
[3]
  viability at 18 h, 10 µM: 91.3%

## Cc1n[nH]c2cc(N(C(=O)NCCCn3cncc3C)C3CCCCC3)ccc12
[1]
  IC50: < 10 µM
[5]
  remaining at 0.5 h: 50.4%
hERG (KCNH2)
  inhibition at 10 µM: 47.6%
[6]
  remaining at 0.5 h: 18.4%
Mus musculus [4]
  inhibition (INH): 25%
[7]
  IC50: 0.0342 µM
[3]
  viability at 18 h, 10 µM: 100%

## Cc1n[nH]c2cc(N(Cc3ccc(F)cc3)C(=O)NCCCn3cncc3C)ccc12
[1]
  IC50: > 10 µM
[5]
  remaining at 0.5 h: 40.1%
hERG (KCNH2)
  inhibition at 10 µM: 61.9%
[6]
  remaining at 0.5 h: 7.2%
Mus musculus [4]
  inhibition (INH): 38.4%
[7]
  IC50: 0.0299 µM
[3]
  viability at 18 h, 10 µM: 92.1%

## Cc1n[nH]c2ccc(N(Cc3ccc(F)cc3)C(=O)NCCCn3cncc3C)cc12
[1]
  IC50: > 10 µM
hERG (KCNH2)
  inhibition at 10 µM: 80.6%
Mus musculus [2]
  inhibition: inactive
[3]
  viability at 18 h, 10 µM: 97.2%

## Cc1n[nH]c2cc(N(CC3CCCC3)C(=O)NCCCn3cncc3C)ccc12
[1]
  IC50: > 10 µM
[5]
  remaining at 0.5 h: 37%
hERG (KCNH2)
  inhibition at 10 µM: 80.8%
[6]
  remaining at 0.5 h: 11.8%
Mus musculus [4]
  inhibition (INH): 25.5%
[7]
  IC50: 0.0182 µM
[3]
  viability at 18 h, 10 µM: 96.9%

## Cc1nn(C)c2ccc(N(Cc3cccnc3)C(=O)NCCCn3cncc3C)cc12
[1]
  IC50: < 10 µM
hERG (KCNH2)
  inhibition at 10 µM: 44.1%
Mus musculus [2]
  inhibition: inactive
[3]
  viability at 18 h, 10 µM: 98.3%

## Cc1n[nH]c2ccc(N(C(=O)NCCCn3cncc3C)C3CCCCC3)cc12
[1]
  IC50: > 10 µM
hERG (KCNH2)
  inhibition at 10 µM: 74.4%
Mus musculus [4]
  inhibition (INH): 8%
[3]
  viability at 18 h, 10 µM: 100%

## Cc1nn(C)c2ccc(NC(=O)NCCCn3cncc3C)cc12
hERG (KCNH2)
  inhibition at 10 µM: 54.4%
Mus musculus [2]
  inhibition: inactive
[3]
  viability at 18 h, 10 µM: 104%

## Cc1nn(C)c2cc(N(C(=O)NCCCn3cncc3C)C3CCCCC3)ccc12
hERG (KCNH2)
  inhibition at 10 µM: 52.2%
Mus musculus [2]
  inhibition: inactive
[3]
  viability at 18 h, 10 µM: 102%

## Cc1nn(CCCCc2ccnc(N)c2)c2ccc(NC(=O)NCCCn3cncc3C)cc12
hERG (KCNH2)
  inhibition at 10 µM: 50.3%
Mus musculus [4]
  inhibition (INH): 7.7%
[3]
  viability at 18 h, 10 µM: 98.7%

## CCCOc1ccc([C@@H]2CNC(=O)N2c2ccc3nc[nH]c3c2)cc1
Mus musculus [4]
  inhibition (INH): 17.1%

## Cc1nn(C)c2ccc(N(CC3CCCC3)C(=O)NCCCn3cncc3C)cc12
[1]
  IC50: > 10 µM
hERG (KCNH2)
  inhibition at 10 µM: 81.5%
Mus musculus [2]
  inhibition: inactive
[3]
  viability at 18 h, 10 µM: 104%

## Cc1nn(C)c2cc(N(Cc3ccc(F)cc3)C(=O)NCCCn3cncc3C)ccc12
hERG (KCNH2)
  inhibition at 10 µM: 56.5%
Mus musculus [2]
  inhibition: inactive
[3]
  viability at 18 h, 10 µM: 102%

## Cc1nn(C)c2ccc(N(C(=O)NCCCn3cncc3C)C3CCCCC3)cc12
[1]
  IC50: > 10 µM
hERG (KCNH2)
  inhibition at 10 µM: 58.1%
Mus musculus [2]
  inhibition: inactive
[3]
  viability at 18 h, 10 µM: 99.1%
